Residues, ends and D or L forms follow the SMILES beside them. *: point of attachment. AFC = O=c1cc(C(F)(F)F)c2ccc(N*)cc2o1; Cbz = O=C(OCc1ccccc1)*; CH2F = FC*
What was measured:
[1] = tested on: Taenia solium crude mix; experiment: Substrate cleavage screen of AFC-linked peptides (Step II), crude mix; assay type: biochemical; conditions: 0.4 M Citrate, pH 4.9, 18 h, 37 °C
Experimental: (§1) In this step, the most efficacious substrate for detection of the cysteine protease (high Kcat substrate) was determined in vitro along with those substrates which were not well cleaved (low kcat substrates). From this point forward, the following conditions refer to all assays: "assay buffer" refers to 0.4 M Citrate, pH 4.9 (the pH optima of the protease). Incubation time was 18 hours at 37°C. These conditions were determined by our preliminary data to be best for kinetic evaluation of the protease. […] The experiments were conducted in 6X50 […] Borosilicate mini-culture tubes (Fisher Scientific), and a fluorometer (Turner) was employed for detection of AFC cleavage.
In order to prepare the Taenia solium "crude mix", dry frozen Taenia solium cysts were obtained from 6-12 month old cysticercotic pigs from villages in an endemic area of porcine cysticercosis in Mexico. Metacestodes were carefully dissected from the parasitized tissues, washed three times with PBS, and lyophilized. Parasite extracts were prepared by suspending 0.1 grams of dry frozen cysts in 10 ml of extraction buffer (0.4 M citrate, pH 4.9) at room temperature. The cysts were vortexed for three five-minute intervals with intermittent incubations (5 min) at 4 °C. Particulate material was removed by centrifugation (20,000 x g, 120 min) and the resulting soluble fraction filtered ([…]). In assay buffers, the detectable amount of the crude mix, as described above, was employed and incubated with the target substrates.
(§2) Vmax for the cleavage of substrates by the purified target protease and Vmax for substrates cleaved by the crude mix protease were each calculated using conventional kinetic modeling calculations already described in the art.

[2] = tested on: purified Taenia solium cysteine protease; experiment: Substrate cleavage screen of AFC-linked peptides (Step II), purified protease; assay type: biochemical; conditions: 0.4 M Citrate, pH 4.9, 0.01 M cysteine, 18 h, 37 °C
Experimental: as §1
Since the full 8,420 amino acid possibilities for cleavage were not available, representative substrates were employed. […] In order to choose this subset, representative amino acids (i.e., selected from the categories of acidic, basic, nonpolar, uncharged) were chosen so as to create as many categories of motifs as feasible for the P3-P1 positions with a set of 67 small peptides (see lists at Fig. 4a and Fig. 4b). The target cysteine protease from Taenia solium was isolated using the purification methods described previously in the patent WO 00/63350.
Approximately 1 ug (or a proteolytically detectable amount) of the purified target cysteine protease was incubated individually, with 1 ug of each of the available substrates in 500 uL of assay buffer. During this setup, the substrate was pre-incubated in the assay buffer for a short period of time (20 minutes) in order to reach an equilibrated status before the addition of the protease. Cleavage assessments were based upon the property of the protease to cleave synthetic peptide substrates linked at the C-terminus to 7-Amino-4-Trifluoromethyl Coumarin (AFC) as previously described. AFC linked tripeptides, dipeptides, and monopeptides, (with a variety of permutations at P3-P1) were available from Enzyme Systems Products (Livermore, CA), and were used as the source of the subset. Following incubation of enzyme preparations overnight (18 h, 37 °C) with peptide in assay buffer (Citrate, pH 4.9, supplemented with 0.01 M cysteine), free AFC concentrations were measured fluorometrically (excitation 405 nm, emission 505 nm). The proteolytic cleavage released the AFC group, which was measurable as a free molecule by a standard fluorometer and converted into molar quantities, based upon a previously established standard curve. The simplicity of AFC detection by the fluorometer was a key factor which expedited and simplified the procedures.
In the assay, 1 ug of the purified Taenia cysteine protease was added to a saturating amount of Z-Phe-Arg-AFC (4X10^-5 M) in assay buffer. The experiment was conducted in triplicate and repeated at least 5 times until we were certain that variability in AFC cleavage was not statistically significant.
as §2

[3] = tested on: Trypsin; experiment: Selectivity test (Steps VI and IX), Trypsin; assay type: biochemical, human; conditions: inhibitor 3 X 10^-10 M; pH 8.0, substrate Z-R-AFC; 0.0003 µM
Experimental: (§3) In order to perform the assay, the vehicle (for Step VI) or inhibitor (for Step IX) were incubated with the appropriate substrate in the correct assay buffer and allowed to equilibrate. Subsequently, the protease was added, and the assay was allowed to incubate for an appropriate time. The concentrations used in this experiment were as follows: Vehicle was set up at 4 X 10^-5 M in final assay buffer; Inhibitor was set up at 3 X 10^-10 M in the final assay buffer. Preferably the dosages employed should be the minimal amount of vehicle or inhibitor necessary to induce inhibition. […] Substrates were set up based upon the preferred substrate for cleavage of the particular enzyme.
(§4) Positive controls were set up similarly as described for test controls, except that a solvent blank was added in substitution for the inhibitor or vehicle (in a volume equal to the volume of inhibitor or vehicle addition). All of the inhibitors and vehicles could be dissolved in dimethylsulfoxide (DMSO), and therefore, this was the solvent of choice. Negative controls were set up by adding the inhibitor or vehicle and the preferred substrates in a tube without the protease. All potential non-proteolytic liberation of AFC was therefore controlled for in this tube.
(§5) All controls were set up in triplicate, and experiments were repeated a minimum of five times.
(§6) Percent inhibition was calculated as: %Inhibition = ((AFC positive for "SI"−AFC negative for "SI")−(AFC test−AFC negative for "SI"))/(AFC positive for "SI"−AFC negative for "SI") × 100 [formula]
(§7) In this preliminary test, we employed the following human-derived enzymes (with indicated mechanistic class in parentheses): Cathepsin B (cysteine), Cathepsin L (cysteine), Cathepsin H (cysteine), Cathepsin D (aspartic), Trypsin (serine), the purified Taenia solium cysteine protease, and the Taenia solium crude mix. Cathepsin B was prepared in an assay buffer of 10 mM L-cysteine in 0.4 M Citrate buffer, pH 6.1, using Z-ARR-AFC as the cleavage substrate. Cathepsin L was prepared in an assay buffer of 10 mM L-cysteine in 0.4 M Citrate buffer, pH 5.5, using Z-FR-AFC as the cleavage substrate. Cathepsin H was prepared in an assay buffer of 10 mM L-cysteine in 0.15 M PBS buffer, pH 6.8, using L-R-AFC as the cleavage substrate. Cathepsin D was prepared in an assay buffer of 0.15 M PBS, pH 7.1, using Z-RGFFP-AFC as the cleavage substrate. Trypsin was prepared in an assay buffer of 0.15 M PBS, pH 8.0, supplemented with 100 mM CaCl2 and with Z-R-AFC as the cleavage substrate. Enzyme was incubated so that it was at least 50 times less than the concentration of substrate in order to insure saturating conditions.

[4] = molecular target: Cathepsin L (Homo sapiens, UniProt P07711); experiment: Selectivity test (Steps VI and IX), Cathepsin L; assay type: biochemical; conditions: inhibitor 3 X 10^-10 M; pH 5.5, substrate Z-FR-AFC; 0.0003 µM
Sequence of Cathepsin L (P07711 114-333): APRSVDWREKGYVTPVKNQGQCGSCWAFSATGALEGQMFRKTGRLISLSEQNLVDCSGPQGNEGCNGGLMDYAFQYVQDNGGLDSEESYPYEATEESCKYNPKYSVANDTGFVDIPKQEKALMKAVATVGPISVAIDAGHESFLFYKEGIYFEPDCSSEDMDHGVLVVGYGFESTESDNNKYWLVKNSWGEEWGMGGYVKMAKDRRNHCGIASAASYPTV
Experimental: as §3, §4, §5, §6, §7

[5] = tested on: purified Taenia solium cysteine protease; experiment: Protease inactivator inhibition assay against cocktail, EC100 and Ki (Step VII); assay type: biochemical; conditions: for % Inhibition of T. solium CP in vitro: concentration not stated in Table 4; for ranking by EC100: dilution study, nanomolar levels
Excerpt: Once the protease inactivators were synthesized in the organic laboratory, they were to be tested for the lowest efficacious concentrations at which they induced 100% inhibition of the target protease (EC100). The top percent cocktail that was employed in the final vehicle selection step of Step III was employed as the source of competition for the inhibitors. In this case, this was the 7.9% cocktail that was comprised of Z-FR-AFC, Z-FAR-AFC, Z-AP-AFC, Z-AAK-AFC, and Z-VLR-AFC. The final result would be a ranking of transition state candidate protease inactivators with a high ranking directly correlating to a low EC100 value. The following steps describe the assay: • Step A: Initial Screening. To set up the test control, each protease inactivator was first incubated with the 5% cocktail (which provided the final differentiation of vehicles in Step III). To begin with, the protease inactivator was incubated at a concentration of 3 X 10^-9M in 500 ul of assay buffer (0.2 M Citrate, pH 4.9, supplemented with 10mM L-cysteine). This concentration was determined by a series of inhibitor dilutions to be the best inhibitor concentration at which a differentiation in inhibitor potential could be noted. Next, a concentration equal to 4 X 10^-5M for each of the individual cocktail components, was added to the mix. The components were allowed to equilibrate for a period of 30 minutes. Finally, active purified enzyme was added to the tubes at a concentration which was always at least 50 times less than the concentration of the lowest concentration in the mix (so as to provide saturating conditions.) This concentration varied from purification to purification, and the amount that was added depended upon the yield and specific activity of the purified protease. Positive controls were set up similarly as described for test controls, except that solvent was added in substitution for the protease inactivator (in a volume equal to the […] volume addition). All of the protease inactivators could be dissolved in dimethylsulfoxide (DMSO), and therefore, this was the solvent of choice. Negative controls were set up by adding the protease inactivator and the cocktail substrates in a tube, without the protease. All potential non-proteolytic induced liberation of AFC was therefore controlled for in this tube. All controls were set up in triplicate, and experiments repeated a minimum of five times. The assays were incubated at 37°C, overnight. Percent inhibition was calculated as: %Inhibition = ((AFC positive for "SI"−AFC negative for "SI")−(AFC test−AFC negative for "SI"))/(AFC positive for "SI"−AFC negative for "SI") × 100 [formula] • Step B: Inhibitor Dilution Studies and formation of a ranked list of protease inactivators based upon EC100 values. […] Because of this, a dilution study was required in order to determine a viable ranking. Thus, the concentration of each of the protease inactivators was lowered with a dose response setup until the most efficacious concentration for 100% inhibition (EC100) could be determined. The inhibitors had to be diluted to nanomolar levels in order to establish a differentiable EC100 pattern. The final result of the assay was a ranked candidate list of protease inactivators. A lower EC100 was attributable to a higher ranking and vice-versa. • Step C: Determination of Inhibitor Ki and mode of inhibition, and re-ranking of EC100 list with inhibitor Ki. Ki of each of the top ranked protease inactivators, based upon low EC100 values, was assessed next for the top 5 EC100 inhibitors.
In order to determine Ki, all of the high Vmax cocktail substrates were employed for Ki determination (since Ki of the inhibitor for the enzyme is the same regardless of the substrate). To insure the highest accuracy, Ki was to be determined upon a minimum of at least three of the high Kcat substrates. Nonlinear fitting and the Dixon plot were both employed to determine Ki of the top ranked protease inactivators. […]

[6] = tested on: normal BALB/c mouse splenocytes; experiment: Splenocyte proliferation (3H-thymidine incorporation) with or without Con-A; assay type: cell-based
[7] = tested on: Taenia crassiceps cysts; experiment: Short-term protection of BALB/c mice from cysticercosis infection; assay type: in vivo
[8] = tested on: BALB/c mice; experiment: Observation of side effects in treated mice; assay type: in vivo
[9] = tested on: T. solium (cysteine); experiment: Selectivity test (Steps VI and IX), T. solium cysteine protease; assay type: biochemical, Taenia solium; conditions: inhibitor 3 X 10^-10 M
Experimental: as §3, §4, §5, §6, §7

C[C@H](NC(=O)[C@H](Cc1ccccc1)NC(=O)OCc1ccccc1)C(=O)N[C@@H](CCCNC(=N)N)C(=O)Nc1ccc2c(C(F)(F)F)cc(=O)oc2c1 [Z-FAR-AFC] (Cbz-Phe-Ala-Arg-{AFC})
cleavage of AFC substrate (Vmax) [1]: most cleaved

N=C(N)NCCC[C@H](NC(=O)[C@H](Cc1ccccc1)NC(=O)OCc1ccccc1)C(=O)Nc1ccc2c(C(F)(F)F)cc(=O)oc2c1 [Z-FR-AFC, Z-Phe-Arg-AFC, reference compound] (Cbz-Phe-Arg-{AFC})
cleavage of AFC substrate (Vmax) [1]: most cleaved | cleavage of AFC substrate (Vmax) [2]: cleaved | cleavage of AFC substrate (Vmax) ([2]; listed as Z-Phe-Arg-AFC): highest Vmax

CC(C)C[C@H](NC(=O)[C@H](CC(C)C)NC(=O)[C@H](CC(C)C)NC(=O)OCc1ccccc1)C(=O)CF [Z-LLL-FMK, Z-Leu-Leu-Leu-fluoromethylketone] (Cbz-Leu-Leu-Leu-CH2F)
% inhibition [3]: 0% | % inhibition [4]: almost half of the inhibition of the Taenia solium cysteine protease | % Inhibition of T. solium CP in vitro [5]: 100% | ranking by EC100 [5]: top inhibitors | proliferative response (3H-thymidine incorporation) ([6]; inhibitor alone): do not induce a proliferative response | toxicity to splenocytes in vitro ([6]; preliminary results): nontoxic | % Therapeutic protection of BALB/c mice ([7]; inhibitor treatment began two weeks after infection): 60% | side effects in treated animals ([8]; long or short-term period): only negligible side effects | side effects in treated mice ([8]; long-term studies): no side effects | % inhibition [9]: 98%

CC(C)C[C@H](NC(=O)[C@@H](NC(=O)OCc1ccccc1)C(C)C)C(=O)N[C@@H](CCCNC(=N)N)C(=O)Nc1ccc2c(C(F)(F)F)cc(=O)oc2c1 [Z-VLR-AFC] (Cbz-Val-Leu-Arg-{AFC})
cleavage of AFC substrate (Vmax) [1]: most cleaved

C[C@H](NC(=O)OCc1ccccc1)C(=O)N[C@@H](C)C(=O)N[C@@H](CCCCN)C(=O)Nc1ccc2c(C(F)(F)F)cc(=O)oc2c1 [Z-AAK-AFC] (Cbz-Ala-Ala-Lys-{AFC})
cleavage of AFC substrate (Vmax) [1]: most cleaved

CC(C)C[C@@H](/C=C/S(C)(=O)=O)NC(=O)[C@H](CC(C)C)NC(=O)[C@H](CC(C)C)NC(=O)OCc1ccccc1 [Z-LLL-VS, Z-Leu-Leu-Leu-vinylsulfone]
ranking by EC100 [5]: top inhibitors

C[C@H](N)C(=O)N1CCC[C@H]1C(=O)Nc1ccc2c(C(F)(F)F)cc(=O)oc2c1 [AP-AFC] (H-Ala-Pro-{AFC})
cleavage of AFC substrate (Vmax) [1]: most cleaved

Leu-Phe-Ketoamide-Pyridyl [K-Pyr, reference compound]
% Inhibition of T. solium CP in vitro [5]: 80% | % Prophylactic protection of BALB/c mice ([7]; pre-injected two days, 10 T. crassiceps cysts/mouse, dosed daily four weeks, cysts counted after one month): 40%

Reference: EP1379634B1 (THE UNIVERSITY OF GEORGIA RESEARCH FOUNDATION, INC., priority 2001, dated 2002)
